Columns and labels:
AP1 activity = test: Anti-AP1 assay (AP-1 CAT reporter, CV-1 cells cotransfected with RAR subtypes); assay type: cell-based; details: 10^−6 M; each of the three RAR subtypes cotransfected
Method: The ability of each RAMBA to inhibit AP1 activity was determined using anti-AP1 assays as we have described previously ([Soprano et al, 2000]). Briefly, CV-1 cells were cotransfected with 1.5 μg RAR subtype (RARα, RARβ and RARγ) expression vector construct in pSG5, 1.5 μg AP-1 CAT reporter DNA and 0.5 μg pCMV-β-gal DNA. […] Twenty-four hours later, the cells were harvested and CAT and β-gal activities were assayed. The percentage of AP-1 activity was calculated using the ethanol carrier control sample as 100%.

PARP = test: Western immunoblotting for cleaved PARP in T47D cells; assay type: cell-based, human; details: 6 days
Method: (§1) At the end of the treatment, cells were scrapped and collected by washing with ice-cold PBS in a centrifuge tube. Cells were centrifuged at 2500 r.p.m. for 10 min, the pellet was again washed with ice-cold PBS and centrifuged. The cell pellet was then suspended in chilled cell lysis buffer (0.1 M Tris–HCl, 0.5% Triton X-100, protease inhibitor cocktail) and sonicated on ice for 10–15 s. The homogenate was kept on ice for 30 min and then centrifuged at 13 000 r.p.m. for 30 min. The supernatant was used as cell lysate. The cell lysates were stored at −80°C. Protein concentration of the cell lysates was determined using Bio-Rad protein assay reagents.
(§2) Protein lysates from MCF-7 and T47D cells were subjected to sodium dodecyl sulphate–polyacrylamide gel electrophoresis (SDS–PAGE) and immunoblotted for different proteins. […] Immunoreactive bands were visualised using the enhanced chemiluminescence detection reagents and analysis system (Amersham Bioscences) according to the manufacturer's instructions and quantified by densitometry using ImageQuant software version 5.
Figure 7 (A) Western immunoblotting of whole-cell lysates of treated MCF-7 and T47D cells for the expression of Bad. […] Numbers below the blot show fold increase in expression of the protein as analysed by ImageQuant densitometry analysis. […]

cyclin D1 = test: Western blotting for cyclin D1 in T47D cells; assay type: cell-based, human; details: 1, 5 and 10 μM, 6 days
Method: as §1, §2
Figure 5 Western blotting of whole-cell lysates of treated MCF-7 and T47D cells for the expression of Cyclin D1. […] Numbers below the blot show fold decrease in expression of the protein as analysed by ImageQuant densitometry analysis. […]

MCF-7 cells = test: TUNEL apoptosis assay, MCF-7; assay type: cell-based, human; details: 5 μM; 6 days; control about 1.5%
From the text: The cells were rinsed with PBS and then the stained-labelled apoptotic cells were mounted using DAPI (diamidino-2-phenylindole 2HCl)-glycerol and visualised with a fluorescent microscope using two filters (1) for TUNEL stained cells, and (2) for DAPI stained cells, which represents all the cells (nuclei). Fluorescent microscope model was Nikon, Eclipse E400 and the software was SPOT advanced version 3.5.5 by Diagnostic Instruments Inc. (Sterling Heights, MI, USA).
Figure 6 Graphs showing apoptosis induced in (A) MCF-7 and (B) T47D cells as determined by TUNEL. […] TUNEL-stained apoptotic cells were counted against the DAPI stained cells to obtain percentage apoptosis. The experiments were repeated thrice with similar results. Error bars show s.e.m of three different fields of treated cells, statistically significant ^*P<0.01 and ^**P<0.001 vs control.

Structure (SMILES)	Reduction of AP1-dependent transcription activity (AP1 activity)	Increase in level of cleaved PARP compared with control (PARP; 1 μM)	Increase in level of cleaved PARP compared with control (PARP; 5 μM)	Expression of cyclin D1 (in words) (cyclin D1)	Induction of apoptosis (TUNEL), MCF-7 (MCF-7 cells)
CC1=C(/C=C/C(C)=C/C=C/C(C)=C/C(=O)O)C(C)(C)CCC1n1ccnc1 (centres unmarked) [VN/14-1]	20–40%	6.3 fold	7.5 fold	significantly downregulated	
CC1=C(/C=C/C(C)=C/C=C/C(C)=C\C(=O)Nc2ccc(O)cc2)C(C)(C)CCC1n1ccnc1 (centres unmarked) [VN/69-1]					least effective of the RAMBAs in inducing apoptosis
